According to PubChem BioAssay (NCI):
Where “and” joins values, the source holds several entries; their conditions need not be identical. Identical values can stand only once.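 Cells were grown in 96-well plates and exposed to each compound for 48 hours at five concentrations; endpoints were interpolated linearly between bracketing concentrations, or set to the highest concentration if not reached. GI50 is the concentration that inhibits growth by half. TGI: concentration producing complete growth inhibition.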

What was measured:
Experiment in all cases: DTP human tumour cell line panel, 48 h
[1] = system: A498 renal
[2] = system: CCRF-CEM leukemia
[3] = system: EKVX NSCLC
[4] = system: IGROV1 ovarian
[5] = system: K-562 leukemia
[6] = system: LOX IMVI melanoma
[7] = system: NCI-H226 lung
[8] = system: OVCAR-4 ovarian
[9] = system: OVCAR-5 ovarian
[10] = system: SNB-19 CNS

Row | SMILES | GI50 [1] | TGI [1] | GI50 [2] | TGI [2] | GI50 [3] | TGI [3] | GI50 [4] | TGI [4] | GI50 [5] | TGI [5] | GI50 [6] | TGI [6] | GI50 [7] | TGI [7] | GI50 [8] | TGI [8] | GI50 [9] | TGI [9] | GI50 [10] | TGI [10]
1 | C[C@@]1(C(=O)O)CCC[C@]2(C)C1CC[C@]13C[C@@](O)(CO)[C@](O)(CC[C@]12O)C3 (some centres undefined) | 75.1 µM | > 100 µM | > 100 µM | > 100 µM | > 100 µM | > 100 µM | > 100 µM | > 100 µM | > 100 µM | > 100 µM | > 100 µM | > 100 µM | > 100 µM | > 100 µM | > 100 µM | > 100 µM | > 100 µM | > 100 µM | > 100 µM | > 100 µM
2 | O=C(NCCCl)Nc1ccccc1 |  | > 100 µM |  | > 100 µM |  | > 100 µM |  | > 100 µM |  | > 100 µM |  | > 100 µM |  | > 100 µM |  | > 100 µM |  | > 100 µM |  | > 100 µM
3 | O=C1C(Cl)=C(Cl)C(=O)N1c1ccc(F)cc1 |  | > 100 µM |  | 16.5 µM |  | 40.6 µM |  | 43.6 µM |  | > 51.1 µM |  | 32.6 µM |  | > 77.7 µM |  | 23.8 µM |  | 41 µM |  | > 73.2 µM
4 | COc1cc2c(NC3CCN(C(C)C)CC3)nc(C3CCCCC3)nc2cc1OCCCN1CCCC1 | 2.01 µM | 14.1 µM | 2.44 µM | 6.88 µM | 8.42 µM | 21.1 µM | 12.5 µM | 26.9 µM | 1.99 µM | 4.55 µM | 1.75 µM | 3.95 µM | 12.3 µM | 26.9 µM | 5.36 µM | 15.9 µM | 8.87 µM | 22.2 µM | 15.4 µM | 30.3 µM
5 | NC(Cc1cccnn1)C(=O)O (centres undefined) |  | > 100 µM |  | > 100 µM |  | > 100 µM |  | > 100 µM |  | > 100 µM |  | > 100 µM |  | > 100 µM |  | > 100 µM |  | > 100 µM |  | > 100 µM
6 | CN(C)c1cc2c(Nc3ccc4c(cnn4Cc4ccccc4)c3)ncnc2cn1 | 16.7 µM | > 25 µM | 10.3 µM | > 25 µM | 0.108 µM | > 8.76 µM | 5.38 µM | > 23.3 µM | 9.66 µM | > 25 µM | 8.32 µM | > 25 µM | 15.9 µM | > 25 µM | 14.2 µM | > 25 µM | 9.2 µM | > 25 µM | 12.7 µM | > 25 µM
7 | CSc1nnc(-c2cc3c([nH]c4ccccc43)c(-c3cccc(O)c3)n2)n1-c1ccc(C)cc1 | 1.73 µM | 7.14 µM | 9.4 µM | > 100 µM | 4.51 µM | > 100 µM | 3.62 µM | 24.6 µM | 5.08 µM | > 100 µM | 5.05 µM | > 100 µM | 3.32 µM | 18 µM | 2.73 µM | 8.61 µM | 17.2 µM | 70.1 µM | 3.71 µM | 28.6 µM
8 | CC(=O)O[C@@H]1C2=C(C)C3(CC3)[C@@](C)(O)C(=O)C2=C[C@@]1(C)CO | 1.8 µM | 3.53 µM | 0.475 µM | > 22.5 µM | 2.66 µM | 7.56 µM | 0.598 µM | 5.08 µM | 0.482 µM | > 100 µM | 1.04 µM | 4.44 µM | 2.12 µM | 5.22 µM | 0.674 µM | 4.44 µM | 0.427 µM |  | 1.08 µM | 9.6 µM
9 | CC(C)c1[nH]nc2c(NCc3ccc(-c4ccccn4)cc3)nc(SCCN)nc12 | 0.0306 µM and 0.0302 µM | 0.0826 µM and 0.0876 µM | 0.00978 µM | 15.1 µM | 0.0328 µM and 0.0557 µM | 1.52 µM and 2.62 µM | 0.0215 µM and 0.0231 µM | 12.4 µM | 0.0198 µM | 10.2 µM | 0.00553 µM | 2.62 µM and 1.65 µM | 0.0404 µM and 0.0279 µM | 0.0985 µM | 0.00585 µM | 0.394 µM and 1.41 µM | 0.0472 µM and 0.0385 µM | 12.8 µM | 0.0173 µM and 0.0142 µM | 11.8 µM
10 | C=C1C(=O)O[C@@H]2CC(CO)=C([C@@H](C)CCCO)[C@@H](OC(=O)/C(C)=C\C)[C@H]12 |  | > 74.1 µM |  | 10 µM |  | 48.2 µM |  | 35 µM |  | 31.2 µM |  | 24.3 µM |  | > 62.8 µM |  | > 84.9 µM |  | > 56.9 µM |  | > 54.6 µM
11 | Cc1cc(Cl)nc(N(CCCNc2ccnc3cc(Cl)ccc23)Cc2cccs2)n1 | 0.714 µM | 6.99 µM | 2.56 µM | > 100 µM | 1.99 µM | 12.7 µM | 0.856 µM | 6.2 µM | 0.496 µM | 8.55 µM | 1.22 µM | 2.98 µM | 2.56 µM | 15.5 µM | 2.81 µM | 25.6 µM | 1.39 µM | 13.7 µM | 2.35 µM | 13.5 µM
